Measurements reported in ChEMBL document CHEMBL4699440, “Comprehensive review on the anti-bacterial activity of 1,2,3-triazole hybrids” (Eur J Med Chem, 2019).
≈ marks a conversion by molar mass, not a printed value.

Assays:
[1] = tested on: Candida albicans; assay: Antibacterial activity against Candida albicans MTCC 227 by serial dilution method; type: functional
[2] = tested on: Staphylococcus epidermidis; assay: Antibacterial activity against Staphylococcus epidermidis MTCC 6880 by serial dilution method; type: functional
[3] = tested on: Aspergillus niger; assay: Antibacterial activity against Aspergillus niger MTCC 8189 by serial dilution method; type: functional
[4] = tested on: Escherichia coli; assay: Antibacterial activity against Escherichia coli MTCC […] by serial dilution method; type: functional
[5] = tested on: Bacillus subtilis; assay: Antibacterial activity against Bacillus subtilis MTCC 441 by serial dilution method; type: functional
[6] = tested on: Pseudomonas aeruginosa; assay: Antibacterial activity against Pseudomonas aeruginosa MTCC 424 by serial dilution method; type: functional
[7] = tested on: Klebsiella pneumoniae; assay: Antibacterial activity against Klebsiella pneumoniae assessed as inhibition zone at 10 mg/ml; type: functional; conditions: read-out: IZ
[8] = tested on: Salmonella typhi; assay: Antibacterial activity against Salmonella typhi assessed as inhibition zone at 10 mg/ml; type: functional, Salmonella enterica subsp. enterica serovar Typhi; conditions: Salmonella enterica, read-out: IZ
[9] = tested on: Proteus vulgaris; assay: Antibacterial activity against Proteus vulgaris assessed as inhibition zone at 10 mg/ml; type: functional; conditions: read-out: IZ
[10] = tested on: Pseudomonas aeruginosa; assay: Antibacterial activity against Pseudomonas aeruginosa assessed as inhibition zone at 10 mg/ml; type: functional; conditions: read-out: IZ
[11] = tested on: Escherichia coli; assay: Antibacterial activity against Escherichia coli assessed as inhibition zone at 10 mg/ml; type: functional; conditions: read-out: IZ

| SMILES | MIC [1] [µM] | MIC [2] [µM] | MIC [3] [µM] | MIC [4] [µM] | MIC [5] [µM] | MIC [6] [µM] | zone of inhibition at 10000 µg/mL [7] [mm] | zone of inhibition at 10000 µg/mL [8] [mm] | zone of inhibition at 10000 µg/mL [9] [mm] | zone of inhibition at 10000 µg/mL [10] [mm] | zone of inhibition at 10000 µg/mL [11] [mm] |
| --- | --- | --- | --- | --- | --- | --- | --- | --- | --- | --- | --- |
| Cc1cc(O)c(C(=O)/C=C/c2ccc(OCc3cn(Cc4ccccc4Br)nn3)cc2)c(=O)o1 | 3 (≈ 1.57 µg/mL) | 3 (≈ 1.57 µg/mL) | 3 (≈ 1.57 µg/mL) | 3 (≈ 1.57 µg/mL) | 3 (≈ 1.57 µg/mL) | 3 (≈ 1.57 µg/mL) |  |  |  |  |  |
| Cc1ccc2nc(Cl)c(Cn3cc(COc4ccccc4)nn3)cc2c1 |  |  |  |  |  |  | 7 | 7 | 7 | 7 | 7 |
| Cc1ccc2nc(Cl)c(Cn3cc(COc4ccc(Cl)cc4)nn3)cc2c1 |  |  |  |  |  |  | 7 | 7 | 7 | 7 | 7 |
| Cc1cccc(Cn2cc(COc3ccc(/C=C/C(=O)c4c(O)cc(C)oc4=O)cc3)nn2)c1 | 3 (≈ 1.37 µg/mL) | 3 (≈ 1.37 µg/mL) | 3 (≈ 1.37 µg/mL) | 3 (≈ 1.37 µg/mL) | 3 (≈ 1.37 µg/mL) | 3 (≈ 1.37 µg/mL) |  |  |  |  |  |
| COc1ccc2nc(Cl)c(Cn3cc(COc4ccc(Cl)c(C)c4)nn3)cc2c1 |  |  |  |  |  |  | 7 | 7 | 7 | 7 | 7 |
| COc1ccc(-n2cc(COc3ccc(/C=C/C(=O)c4c(O)cc(C)oc4=O)cc3)nn2)cc1 | 3.4 (≈ 1.56 µg/mL) | 3.4 (≈ 1.56 µg/mL) | 3.4 (≈ 1.56 µg/mL) | 3.4 (≈ 1.56 µg/mL) | 3.4 (≈ 1.56 µg/mL) | 3.4 (≈ 1.56 µg/mL) |  |  |  |  |  |
| Clc1ccc(OCc2cn(Cc3cc4ccccc4nc3Cl)nn2)cc1 |  |  |  |  |  |  | 7 | 7 | 7 | 7 | 7 |
| Cc1ccc(OCc2cn(Cc3cc4cc(C)ccc4nc3Cl)nn2)cc1 |  |  |  |  |  |  | 7 | 7 | 7 | 7 | 7 |
| COc1ccc2nc(Cl)c(Cn3cc(COc4ccc([N+](=O)[O-])cc4)nn3)cc2c1 |  |  |  |  |  |  | 7 | 7 | 7 | 7 | 7 |
| Cc1ccc2nc(Cl)c(Cn3cc(COc4ccc([N+](=O)[O-])cc4)nn3)cc2c1 |  |  |  |  |  |  | 7 | 7 | 7 | 7 | 7 |
| Cc1cc(O)c(C(=O)/C=C/c2ccc(OCc3cn(Cc4ccccc4[N+](=O)[O-])nn3)cc2)c(=O)o1 | 3 (≈ 1.47 µg/mL) | 3 (≈ 1.47 µg/mL) | 3 (≈ 1.47 µg/mL) | 3 (≈ 1.47 µg/mL) | 3 (≈ 1.47 µg/mL) | 3 (≈ 1.47 µg/mL) |  |  |  |  |  |
| CC(=O)Nc1ccc(OCc2cn(Cc3cc4ccccc4nc3Cl)nn2)cc1 |  |  |  |  |  |  | 7 | 7 | 7 | 7 | 7 |
| Clc1nc2ccccc2cc1Cn1cc(COc2ccccc2)nn1 |  |  |  |  |  |  | 7 | 7 | 7 | 7 | 7 |
| Cc1cc(O)c(C(=O)/C=C/c2ccc(OCc3cn(-c4ccc(Br)cc4)nn3)cc2)c(=O)o1 | 3 (≈ 1.52 µg/mL) | 3 (≈ 1.52 µg/mL) | 3 (≈ 1.52 µg/mL) | 3 (≈ 1.52 µg/mL) | 3 (≈ 1.52 µg/mL) | 3 (≈ 1.52 µg/mL) |  |  |  |  |  |
| Cc1ccc(Cn2cc(COc3ccc(/C=C/C(=O)c4c(O)cc(C)oc4=O)cc3)nn2)cc1 | 3 (≈ 1.37 µg/mL) | 3 (≈ 1.37 µg/mL) | 3 (≈ 1.37 µg/mL) | 3 (≈ 1.37 µg/mL) | 3 (≈ 1.37 µg/mL) | 3 (≈ 1.37 µg/mL) |  |  |  |  |  |
| COc1ccc2nc(Cl)c(Cn3cc(COc4ccccc4)nn3)cc2c1 |  |  |  |  |  |  | 7 | 7 | 7 | 7 | 7 |
| Cc1cc(O)c(C(=O)/C=C/c2ccc(OCc3cn(Cc4cccc([N+](=O)[O-])c4)nn3)cc2)c(=O)o1 | 3 (≈ 1.47 µg/mL) | 3 (≈ 1.47 µg/mL) | 3 (≈ 1.47 µg/mL) | 3 (≈ 1.47 µg/mL) | 3 (≈ 1.47 µg/mL) | 3 (≈ 1.47 µg/mL) |  |  |  |  |  |
| Cc1cc(O)c(C(=O)/C=C/c2ccc(OCc3cn(-c4ccc([N+](=O)[O-])cc4)nn3)cc2)c(=O)o1 | 3 (≈ 1.42 µg/mL) | 3 (≈ 1.42 µg/mL) | 3 (≈ 1.42 µg/mL) | 3 (≈ 1.42 µg/mL) | 3 (≈ 1.42 µg/mL) | 3 (≈ 1.42 µg/mL) |  |  |  |  |  |
| Cc1ccc2nc(Cl)c(Cn3cc(COc4ccccc4Cl)nn3)cc2c1 |  |  |  |  |  |  | 7 | 7 | 7 | 7 | 7 |
